Active and inactive are the calls of the source. The rule behind the calls is not given here.
Columns and labels:
[1] = test system: Jurkat; assay: Induction of cell cycle arrest in human Jurkat cells assessed as increase in G2/M phase cells at 1 uM incubated for 24 hrs in presence of doxorubicin by PI staining based flow cytometric analysis; format: functional
[2] = test system: CT26; assay: Antitumor activity against mouse CT26 cells implanted in BALB/c mouse assessed as reduction in tumor volume at 10 mg/kg, ip administered once daily for 21 days relative to control; format: functional; set-up: scale not given: the % may be the effect or the level left; conditions: time 21 day
[3] = test system: CT26; assay: Antitumor activity against mouse CT26 cells implanted in BALB/c mouse assessed as reduction in tumor volume by measuring tumor growth inhibition at 10 mg/kg, ip QD co-administered with doxorubicin for 21 days relative to control; format: functional; conditions: CT26, 504 h, time 21 day, read-out: TGI
[4] = molecular target: DNA-dependent protein kinase catalytic subunit (Homo sapiens, UniProt P78527); assay: Inhibition of human full-length DNA-PK using EPPLSQEAFADLWKK as substrate incubated for 60 mins in presence of ATP by ADP-Glo kinase assay
[5] = test system: CT26; assay: Antitumor activity against mouse CT26 cells implanted in BALB/c mouse assessed as reduction in tumor weight by measuring tumor growth inhibition at 10 mg/kg, ip QD co-administered with doxorubicin for 21 days relative to control; format: functional; conditions: CT26, 504 h, time 21 day, read-out: TGI
[6] = Tmax in male Sprague-Dawley rat at 10 mg/kg, po measured after 48 hrs by LC-MS/MS analysis; format: ADME, organism-based; conditions: in vivo
[7] = test system: B16-F10; assay: Antitumor activity against mouse B16-F10 cells implanted in C57BL/6 mouse assessed as tumor growth inhibition at 10 mg/kg, ip QD co-administered with SWS1 for 13 days relative to control; format: functional; conditions: B16-F10, 312 h, time 13 day, read-out: TGI
[8] = Toxicity in C57BL/6 mouse implanted with mouse B16-F10 cells assessed as effect on body weight at 10 mg/kg, ip QD co-administered with SWS1 for 13 days; format: organism-based; conditions: in vivo, 312 h, time 13 day
[9] = test system: HepG2; assay: Inhibition of DNA damage repair in human HepG2 cells assessed as reduction in gammaH2AX expression level by Western blot analysis; format: functional, cell-based; conditions: dose 10-40 µM
[10] = C0 in male Sprague-Dawley rat at 2 mg/kg, iv measured after 48 hrs by LC-MS/MS analysis; format: ADME, organism-based; conditions: in vivo
[11] = test system: B16-F10; assay: Immunomodulatory activity in mouse B16-F10 cells implanted in C57BL/6 mouse assessed as percentage of CD3 positive CD8 positive cells in tumor at 10 mg/kg, ip QD co-administered with PD-L1 antibody for 13 days by flow cytometric analysis (reference value: 0.99%); format: functional; conditions: time 13 day
[12] = Selectivity ratio of IC50 for antiproliferative activity against human Jurkat cells to IC50 for synergistic antiproliferative activity against human Jurkat cells in presence of doxorubicin; format: functional
[13] = test system: CT26; assay: Antitumor activity against mouse CT26 cells implanted in BALB/c mouse assessed as reduction in tumor weight at 10 mg/kg, ip administered once daily for 21 days relative to control; format: functional; set-up: scale not given: the % may be the effect or the level left; conditions: time 21 day
[14] = test system: Jurkat; assay: Induction of cell cycle arrest in human Jurkat cells assessed as decrease in S phase cells at 1 uM incubated for 24 hrs in presence of doxorubicin by PI staining based flow cytometric analysis; format: functional
[15] = test system: B16-F10; assay: Immunomodulatory activity in mouse B16-F10 cells implanted in C57BL/6 mouse assessed as percentage of CD3 positive CD4 positive cells in tumor at 10 mg/kg, ip QD co-administered with SWS1 for 13 days by flow cytometric analysis (reference value: 0.86%); format: functional; conditions: time 13 day
[16] = test system: Jurkat; assay: Inhibition of DNA damage repair in human Jurkat cells assessed as reduction in gammaH2AX expression level by Western blot analysis; format: functional, cell-based; conditions: dose 0.1-5 µM
[17] = Toxicity in C57BL/6 mouse implanted with mouse B16-F10 cells assessed as effect on body weight at 10 mg/kg, ip administered once daily for 13 days; format: organism-based; conditions: in vivo, 312 h, time 13 day
[18] = Toxicity in C57BL/6 mouse implanted with mouse B16-F10 cells assessed as change in kidney histopathology at 10 mg/kg, ip administered once daily for 13 days by H&E staining based analysis; format: organism-based; conditions: in vivo, 312 h, time 13 day
[19] = test system: B16-F10; assay: Immunomodulatory activity in mouse B16-F10 cells implanted in C57BL/6 mouse assessed as percentage of CD3 positive CD4 positive cells in tumor at 10 mg/kg, ip QD co-administered with PD-L1 antibody for 13 days by flow cytometric analysis (reference value: 0.86%); format: functional; conditions: time 13 day
[20] = Selectivity ratio of IC50 for antiproliferative activity against mouse B16-F10 cells to IC50 for synergistic antiproliferative activity against mouse B16-F10 cells in presence of doxorubicin; format: functional
[21] = Selectivity ratio of IC50 for antiproliferative activity against mouse CT26 cells to IC50 for synergistic antiproliferative activity against mouse CT26 cells in presence of doxorubicin; format: functional
[22] = Tmax in male Sprague-Dawley rat at 2 mg/kg, iv measured after 48 hrs by LC-MS/MS analysis; format: ADME, organism-based; conditions: in vivo
[23] = Clearance in male Sprague-Dawley rat at 2 mg/kg, iv measured after 48 hrs by LC-MS/MS analysis; format: ADME, organism-based; conditions: in vivo
[24] = test system: B16-F10; assay: Antiproliferative activity against mouse B16-F10 cells assessed as reduction in cell viability incubated for 48 hrs by CCK-8 assay; format: functional, cell-based; conditions: B16-F10, 48 h
[25] = Oral bioavailability in male Sprague-Dawley rat at 10 mg/kg measured after 48 hrs by LC-MS/MS analysis; format: ADME, organism-based; conditions: in vivo
[26] = AUC (0 to t) in male Sprague-Dawley rat at 2 mg/kg, iv measured after 48 hrs by LC-MS/MS analysis; format: ADME, organism-based; conditions: in vivo
[27] = test system: B16-F10; assay: Immunomodulatory activity in mouse B16-F10 cells implanted in C57BL/6 mouse assessed as percentage of CD3 positive CD8 positive cells in tumor at 10 mg/kg, ip QD co-administered with SWS1 for 13 days by flow cytometric analysis (reference value: 0.99%); format: functional; conditions: time 13 day
[28] = AUC (0 to infinity) in male Sprague-Dawley rat at 2 mg/kg, iv measured after 48 hrs by LC-MS/MS analysis; format: ADME, organism-based; conditions: in vivo
[29] = test system: Jurkat; assay: Synergistic antiproliferative activity against human Jurkat cells assessed as reduction in cell viability incubated for 48 hrs in presence of doxorubicin by CCK-8 assay; format: functional, cell-based
[30] = Apparent volume of distribution in male Sprague-Dawley rat at 10 mg/kg, po measured after 48 hrs by LC-MS/MS analysis; format: ADME, organism-based; conditions: in vivo
[31] = test system: Cell membrane; assay: Induction of mitochondrial membrane potential loss in human Jurkat cells at 1 uM incubated for 24 hrs in presence of doxorubicin by JC-1 staining based flow cytometric analysis; format: cell membranes
[32] = test system: Cell membrane; assay: Induction of mitochondrial membrane potential loss in human Jurkat cells at 1 uM incubated for 24 hrs by JC-1 staining based flow cytometric analysis; format: cell membranes
[33] = AUC (0 to infinity) in male Sprague-Dawley rat at 10 mg/kg, po measured after 48 hrs by LC-MS/MS analysis; format: ADME, organism-based; conditions: in vivo
[34] = Cmax in male Sprague-Dawley rat at 10 mg/kg, po measured after 48 hrs by LC-MS/MS analysis; format: ADME, organism-based; conditions: in vivo
[35] = test system: CT26; assay: Antiproliferative activity against mouse CT26 cells assessed as reduction in cell viability incubated for 48 hrs by CCK-8 assay; format: functional, cell-based; conditions: CT26, 48 h

DNA-dependent protein kinase catalytic subunit, sequence (P78527 whole entry): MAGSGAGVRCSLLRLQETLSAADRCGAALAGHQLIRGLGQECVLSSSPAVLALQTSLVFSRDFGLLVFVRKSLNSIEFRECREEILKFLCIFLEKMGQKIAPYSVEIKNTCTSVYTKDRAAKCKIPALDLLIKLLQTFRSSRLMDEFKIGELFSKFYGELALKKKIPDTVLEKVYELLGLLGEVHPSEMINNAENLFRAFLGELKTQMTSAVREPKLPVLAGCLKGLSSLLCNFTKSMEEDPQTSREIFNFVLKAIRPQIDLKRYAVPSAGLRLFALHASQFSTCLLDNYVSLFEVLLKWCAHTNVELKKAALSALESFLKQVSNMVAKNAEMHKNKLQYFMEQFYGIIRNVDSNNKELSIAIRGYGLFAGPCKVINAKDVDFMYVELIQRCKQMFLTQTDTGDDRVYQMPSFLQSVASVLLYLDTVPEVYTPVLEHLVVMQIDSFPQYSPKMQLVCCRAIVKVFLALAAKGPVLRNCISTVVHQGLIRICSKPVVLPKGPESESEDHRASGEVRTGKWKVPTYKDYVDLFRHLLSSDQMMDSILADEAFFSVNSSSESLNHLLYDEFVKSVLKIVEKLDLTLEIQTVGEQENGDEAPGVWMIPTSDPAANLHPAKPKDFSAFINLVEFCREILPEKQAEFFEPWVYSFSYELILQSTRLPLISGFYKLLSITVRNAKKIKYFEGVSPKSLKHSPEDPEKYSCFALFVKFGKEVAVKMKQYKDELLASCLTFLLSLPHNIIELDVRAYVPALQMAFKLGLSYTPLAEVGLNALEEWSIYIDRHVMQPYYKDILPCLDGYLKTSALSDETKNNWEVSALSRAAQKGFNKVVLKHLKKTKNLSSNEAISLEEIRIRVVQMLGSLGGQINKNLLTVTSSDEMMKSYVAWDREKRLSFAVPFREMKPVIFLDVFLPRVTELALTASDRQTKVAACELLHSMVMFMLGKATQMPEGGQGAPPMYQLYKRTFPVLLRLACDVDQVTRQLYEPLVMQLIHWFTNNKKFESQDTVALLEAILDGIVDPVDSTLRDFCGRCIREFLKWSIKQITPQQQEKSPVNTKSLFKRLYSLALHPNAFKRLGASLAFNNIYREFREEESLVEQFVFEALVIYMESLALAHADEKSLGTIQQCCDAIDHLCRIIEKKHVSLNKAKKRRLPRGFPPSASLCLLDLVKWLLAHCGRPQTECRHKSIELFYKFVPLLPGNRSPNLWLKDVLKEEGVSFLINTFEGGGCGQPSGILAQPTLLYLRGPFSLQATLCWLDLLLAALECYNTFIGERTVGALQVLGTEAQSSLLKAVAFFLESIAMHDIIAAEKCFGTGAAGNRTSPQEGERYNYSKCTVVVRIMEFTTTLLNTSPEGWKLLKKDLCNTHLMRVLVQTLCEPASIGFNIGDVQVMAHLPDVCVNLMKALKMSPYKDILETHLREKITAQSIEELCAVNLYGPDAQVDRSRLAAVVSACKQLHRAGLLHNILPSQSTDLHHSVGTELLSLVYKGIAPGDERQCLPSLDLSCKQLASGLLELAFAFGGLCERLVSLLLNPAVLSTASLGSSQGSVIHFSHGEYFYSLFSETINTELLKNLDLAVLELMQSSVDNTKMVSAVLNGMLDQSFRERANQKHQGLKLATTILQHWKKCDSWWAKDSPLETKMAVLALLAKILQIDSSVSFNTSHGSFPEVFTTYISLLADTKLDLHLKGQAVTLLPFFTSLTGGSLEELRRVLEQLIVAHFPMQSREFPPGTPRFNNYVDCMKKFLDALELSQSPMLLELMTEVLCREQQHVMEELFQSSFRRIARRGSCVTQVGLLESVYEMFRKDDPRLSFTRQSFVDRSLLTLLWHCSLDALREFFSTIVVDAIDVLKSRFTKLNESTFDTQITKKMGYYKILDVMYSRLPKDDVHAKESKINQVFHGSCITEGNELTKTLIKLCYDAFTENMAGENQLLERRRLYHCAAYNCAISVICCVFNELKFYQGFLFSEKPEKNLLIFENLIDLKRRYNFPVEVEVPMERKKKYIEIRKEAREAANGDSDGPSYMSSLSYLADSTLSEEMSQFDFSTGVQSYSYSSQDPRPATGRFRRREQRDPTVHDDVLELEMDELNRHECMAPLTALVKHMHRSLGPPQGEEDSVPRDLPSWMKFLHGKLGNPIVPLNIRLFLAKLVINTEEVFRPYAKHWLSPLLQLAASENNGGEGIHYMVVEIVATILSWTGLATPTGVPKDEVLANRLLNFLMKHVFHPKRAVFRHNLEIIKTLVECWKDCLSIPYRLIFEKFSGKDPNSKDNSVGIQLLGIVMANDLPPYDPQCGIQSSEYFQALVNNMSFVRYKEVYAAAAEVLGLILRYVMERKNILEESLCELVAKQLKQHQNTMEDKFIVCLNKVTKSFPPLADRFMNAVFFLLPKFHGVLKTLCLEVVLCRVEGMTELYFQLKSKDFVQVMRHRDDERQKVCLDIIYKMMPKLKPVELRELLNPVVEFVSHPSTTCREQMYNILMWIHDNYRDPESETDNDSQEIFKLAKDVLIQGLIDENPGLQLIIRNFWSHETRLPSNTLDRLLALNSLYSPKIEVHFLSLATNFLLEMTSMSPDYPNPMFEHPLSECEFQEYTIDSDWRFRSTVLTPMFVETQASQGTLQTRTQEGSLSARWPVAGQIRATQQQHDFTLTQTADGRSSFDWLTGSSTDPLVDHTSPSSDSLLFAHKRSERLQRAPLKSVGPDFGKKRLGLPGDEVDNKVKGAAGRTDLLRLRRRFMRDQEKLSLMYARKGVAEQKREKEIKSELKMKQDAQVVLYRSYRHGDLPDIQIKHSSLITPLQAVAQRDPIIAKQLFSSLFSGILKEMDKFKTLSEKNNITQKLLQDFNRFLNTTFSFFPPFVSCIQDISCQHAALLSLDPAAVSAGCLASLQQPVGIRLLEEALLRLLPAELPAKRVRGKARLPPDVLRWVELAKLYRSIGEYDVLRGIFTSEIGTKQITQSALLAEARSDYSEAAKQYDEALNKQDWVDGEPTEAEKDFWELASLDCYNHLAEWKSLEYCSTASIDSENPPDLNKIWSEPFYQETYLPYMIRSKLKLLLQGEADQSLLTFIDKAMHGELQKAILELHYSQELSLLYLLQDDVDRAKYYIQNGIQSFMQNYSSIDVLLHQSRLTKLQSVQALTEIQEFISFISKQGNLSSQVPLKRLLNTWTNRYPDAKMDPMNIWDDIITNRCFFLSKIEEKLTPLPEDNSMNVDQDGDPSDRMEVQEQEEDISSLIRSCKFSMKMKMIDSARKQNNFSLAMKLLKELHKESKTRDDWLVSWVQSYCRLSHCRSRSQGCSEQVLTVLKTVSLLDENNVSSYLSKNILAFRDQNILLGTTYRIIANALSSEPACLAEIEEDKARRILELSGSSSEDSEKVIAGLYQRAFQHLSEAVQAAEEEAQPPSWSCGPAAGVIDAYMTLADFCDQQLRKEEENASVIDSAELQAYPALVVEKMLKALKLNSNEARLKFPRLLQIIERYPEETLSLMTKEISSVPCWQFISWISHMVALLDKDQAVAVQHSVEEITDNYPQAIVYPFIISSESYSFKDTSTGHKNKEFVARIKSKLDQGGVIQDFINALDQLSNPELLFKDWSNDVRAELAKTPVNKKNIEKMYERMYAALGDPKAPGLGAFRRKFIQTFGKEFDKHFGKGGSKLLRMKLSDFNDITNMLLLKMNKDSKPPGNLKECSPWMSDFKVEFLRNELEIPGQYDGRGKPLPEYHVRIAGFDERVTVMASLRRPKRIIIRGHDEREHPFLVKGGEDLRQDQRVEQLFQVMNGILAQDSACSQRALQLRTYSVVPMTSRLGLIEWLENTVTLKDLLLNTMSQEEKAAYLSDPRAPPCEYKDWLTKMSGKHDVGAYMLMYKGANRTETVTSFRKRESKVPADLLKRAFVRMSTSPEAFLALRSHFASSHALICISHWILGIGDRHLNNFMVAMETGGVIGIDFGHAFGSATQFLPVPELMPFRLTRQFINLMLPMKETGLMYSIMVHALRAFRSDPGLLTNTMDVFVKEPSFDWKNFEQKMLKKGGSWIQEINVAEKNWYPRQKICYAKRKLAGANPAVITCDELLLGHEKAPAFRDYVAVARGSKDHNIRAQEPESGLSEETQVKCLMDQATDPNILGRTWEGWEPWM

In the case of Cc1cc2cccnc2cc1Nc1ncc2c(n1)N(C1CCOCC1)Cc1nncn1-2, the Activity [1] is reported as “Active”, the Activity [2] is reported as 32.1% and the inhibition in vivo at 10 mg/kg [3] is reported as 59.5%. It also gave an IC50 [4] of 0.00011 µM, an inhibition in vivo at 10 mg/kg [5] of 50.2% and a Tmax [6] of 84 min. The inhibition in vivo at 10 mg/kg [7] was 63.2%, the Activity [8] was “Non-Toxic” and the inhibition [9] was “Dose-Dependent Effect”. For the same compound, the C0 at 48 h [10] was 1 µg/mL, the Activity [11] was 5.17% and the “Ratio IC50” value [12] was 30. The Activity [13] was 30.8%, the Activity [14] was “Active” and the Activity [15] was 4.02%. For the same compound, the inhibition [16] was “Dose-Dependent Effect”, the Activity [17] was “Non-Toxic” and the Activity [18] was “Non-Toxic”. The Activity [19] was 4.06%, the “Ratio IC50” value [20] was 2.1 and the “Ratio IC50” value [21] was 4.5. It also gave a Tmax [22] of 4.98 min, a clearance [23] of 3.3 L/h/kg and an IC50 [24] of 10.3 µM. For the same compound, the bioavailability [25] was 31.8%, the AUC(0-t) at 48 h [26] was 0.604 µg·h/mL and the Activity [27] was 5.17%. For the same compound, the AUC(0-inf) [28] was 0.605 µg·h/mL, the IC50 [29] was 0.02 µM and the Vz [30] was 38.8 L/kg. The Activity [31] was “Active”, the Activity [32] was “inactive” and the AUC(0-inf) [33] was 0.962 µg·h/mL. For the same compound, the Cmax [34] was 0.324 µg/mL and the IC50 [35] was 4.1 µM.
